Here are results for one molecule from patent publication US20220323532A1, “COMPOSITIONS COMPRISING PLANT-DERIVED EXOSOME-LIKE NANOVESICLES OR EXOSOMES AND METHODS OF USE THEREOF” (priority 2021, published 2022).

The subject of data set [1] is skin of human subjects. Put plainly: Primary skin irritation evaluation, single 48 hour patch. The format is in vivo. The conditions noted are these: single application, patch 48 hours; 55 subjects; positive control. How it is done:
Patches remain in place for 48 hours. […] Trained skin grading laboratory personnel removed the patch and evaluated the test sites.
Whenever feasible, the same individual does the scoring of all the subjects throughout the study and is blinded to the treatment assignments and any previous scores. • 0 no reaction (negative) • 1 erythema throughout at least ¾ of patch area • 2 erythema and induration throughout at least ¾ of patch area • 3 erythema, induration and vesicles • 4 erythema, induration and bullae • D Site discontinued • Dc Subject discontinued • DcI Subject discontinued per Investigator

The test system of data set [2] is skin of human subjects. The conditions noted are these: repeat insult patch test; positive control.
Source text: To determine the irritation and sensitization (contact allergy) potential of a test material (high growth serum comprising ashwagandha exosomes/ELNs 1×10^9 or 1×10^10 after repeated application to the skin of human subjects. […]
This procedure was repeated until a series of nine (9) consecutive, 24-hour exposures had been made three (3) times a week for three (3) consecutive weeks. Prior to each reapplication, the test sites evaluated by trained laboratory personnel. […] Test sites were evaluated by trained laboratory personnel 48 and 96 hours after application. In the event of an adverse reaction, the area of erythema and edema were measured. […] Subjects were instructed to report any delayed reactions that might occur after the final reading. […]

The structures appear in SMILES notation. Read-outs that look alike come from different tables or passages of the source.

Regarding `CCCCCCCCCCCCOS(=O)(=O)[O-].[Na+]` [2.0% Sodium Lauryl Sulfate Solution, Sodium Lauryl Sulfate], the “subjects with a Grade 1 reaction” value in the data set on skin of human subjects [1] and in the data set with skin of human subjects [2] was 6 subjects in each case.
